Experimental data taken from patent US9394310B2, “Carbocycle-substituted purine and 7-deazapurine compounds” (Epizyme, Inc., priority 2010, dated 2016).
Counter-ions that a name gives are not always drawn.

Target: T1, DOT1L (1-416) (Homo sapiens, UniProt Q8TEK3)
T1 construct: 40 μl per well of DOT1L (1-416) (0.25 nM final concentration in assay buffer)
Assay: Determination of IC50: DOT1L (1-416) methyltransferase assay with 3H-SAM and oligonucleosome, Flashplate scintillation readout
Format: biochemical
Conditions: 0.25 nM DOT1L (1-416), 30 min preincubation, 120 min reaction at room temperature, oligonucleosome substrate
Description: Compound was serially diluted 3 fold in DMSO for 10 points and 1 μl was plated in a 384 well microtiter plate. Positive control (100% inhibition standard) was 2.5 uM final concentration of S-adenosyl-L-homocysteine and negative control (0% inhibition standard) contained 1 μl of DMSO. Compound was then incubated for 30 minutes with 40 μl per well of DOT1L (1-416) (0.25 nM final concentration in assay buffer: 20 mM TRIS, pH 8.0, 10 mM NaCl, 0.002% Tween20, 0.005% Bovine Skin Gelatin, 100 mM KCl, and 0.5 mM DTT). 10 μl per well of substrate mix (same assay buffer with 200 nM S—[methyl-^3H]-adenosyl-L methionine, 600 nM of unlabeled […], and 20 nM oligonucleosome) was added to initiate the reaction. Reaction was incubated for 120 minutes at room temperature and quenched with 10 μl per well of 100 μM S-methyl-adenosyl-L methionine. For detection, substrate from 50 μl of reaction was immobilized on a 384 well Streptavidin coated Flashplate (Perkin Elmer) (also coated with 0.2% polyethyleneimine) and read on a Top Count scintillation counter (Perkin Elmer).

T1 sequence (Q8TEK3 1-416): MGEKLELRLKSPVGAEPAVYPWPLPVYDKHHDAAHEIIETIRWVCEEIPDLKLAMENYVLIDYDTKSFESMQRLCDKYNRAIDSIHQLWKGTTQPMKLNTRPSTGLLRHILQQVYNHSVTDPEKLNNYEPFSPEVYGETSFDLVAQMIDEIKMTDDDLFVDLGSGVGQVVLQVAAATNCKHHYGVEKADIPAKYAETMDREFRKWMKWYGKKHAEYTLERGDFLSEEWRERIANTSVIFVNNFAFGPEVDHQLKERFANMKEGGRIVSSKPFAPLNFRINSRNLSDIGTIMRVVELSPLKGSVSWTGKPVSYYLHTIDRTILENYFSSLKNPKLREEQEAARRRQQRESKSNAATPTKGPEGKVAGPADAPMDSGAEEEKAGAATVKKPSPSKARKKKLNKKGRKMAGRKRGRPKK

IC50	Structure (SMILES)
< 100 nM	CN(CCCCc1nc2cc(C(F)(F)F)c(Cl)cc2[nH]1)C[C@H]1C[C@@H](n2ccc3c(N)ncnc32)[C@H](O)[C@@H]1O [Compound 13, (1R,2S,3R,5R)-3-(4-amino-7H-pyrrolo[2,3-d]pyrimidin-7-yl)-5-(((4-(6-chloro-5-(trifluoromethyl)-1H-benzo[d]imidazol-2-yl)butyl)(methyl)amino)methyl)-cyclopentane-1,2-diol]
< 10000 nM	CS(=O)(=O)N(CCCCc1nc2cc(Cl)c(Cl)cc2[nH]1)C[C@H]1C[C@@H](n2ccc3c(NC4CC4)ncnc32)[C@H](O)[C@@H]1O [Compound 16, N-(((1R,2R,3S,4R)-4-(4-(cyclopropylamino)-7H-pyrrolo-[2,3-d]pyrimidin-7-yl)-2,3-dihydroxycyclopentyl)methyl)-N-(4-(5,6-dichloro-1H-benzo[d]imidazol-2-yl)butyl)methanesulfonamide]
< 1000 nM	CS(=O)(=O)N(CCCCc1nc2cc(C(F)(F)F)c(Cl)cc2[nH]1)C[C@H]1C[C@@H](n2ccc3c(N)ncnc32)[C@H](O)[C@@H]1O [Compound 15, N-(((1R,2R,3S,4R)-4-(4-amino-7H-pyrrolo[2,3-d]pyrimidin-7-yl)-2,3-dihydroxycyclopentyl)methyl)-N-(4-(6-chloro-5-(trifluoromethyl)-1H-benzo[d]imidazol-2-yl)butyl)methanesulfonamide]
< 100 nM	CC(C)N(CCCCc1nc2cc(C(F)(F)F)c(Cl)cc2[nH]1)C[C@H]1C[C@@H](n2ccc3c(N)ncnc32)[C@H](O)[C@@H]1O [Compound 14, (1R,2S,3R,5R)-3-(4-amino-7H-pyrrolo[2,3-d]pyrimidin-7-yl)-5-(((4-(6-chloro-5-(trifluoromethyl)-1H-benzo[d]imidazol-2-yl)butyl)(isopropyl)amino)methyl)-cyclopentane-1,2-diol]
< 10000 nM	CS(=O)(=O)N(CCCCc1nc2cc(C(F)(F)F)ccc2[nH]1)C[C@H]1C[C@@H](n2ccc3c(NC4CC4)ncnc32)[C@H](O)[C@@H]1O [Compound 17, N-(((1R,2R,3S,4R)-4-(4-(cyclopropylamino)-7H-pyrrolo-[2,3-d]pyrimidin-7-yl)-2,3-dihydroxycyclopentyl)methyl)-N-(4-(5-(trifluoromethyl)-1H-benzo[d]imidazol-2-yl)butyl)methanesulfonamide]

The remaining lines, values behind:

Structure (SMILES)	IC50
CN(CCCCc1nc2ccc(C(F)(F)F)cc2[nH]1)C[C@H]1C[C@@H](n2ccc3c(NC4CC4)ncnc32)[C@H](O)[C@@H]1O [Compound 7, (1R,2S,3R,5R)-3-(4-(cyclopropylamino)-7H-pyrrolo[2,3-d]pyrimidin-7-yl)-5-((methyl(4-(6-(trifluoromethyl)-1H-benzo[d]imidazol-2-yl)butyl)amino)methyl)-cyclopentane-1,2-diol]	< 100 nM
CC(C)N(CCCCc1nc2cc(C(C)(C)C)ccc2[nH]1)C[C@@H]1C[C@@H](n2ccc3c(N)ncnc32)[C@H](O)[C@@H]1O [Compound 2, (1R,2S,3R,5S)-3-(4-amino-7H-pyrrolo[2,3-d]pyrimidin-7-yl)-5-(((4-(5-tert-butyl-1H-benzo[d]imidazol-2-yl)butyl)(isopropyl)amino)methyl)-cyclopentane-1,2-diol]	< 100 nM
CN(CCCCc1nc2cc(C(F)(F)F)c(Cl)cc2[nH]1)C[C@H]1C[C@@H](n2ccc3c(NC4CC4)ncnc32)[C@H](O)[C@@H]1O [Compound 5, (1S,2R,3R,5R)-3-(((4-(6-chloro-5-(trifluoromethyl)-1H-benzo[d]imidazol-2-yl)butyl)(methyl)amino)methyl)-5-(4-(cyclopropylamino)-7H-pyrrolo[2,3-d]pyrimidin-7-yl)cyclopentane-1,2-diol]	< 100 nM
CC(C)N(CCCCc1nc2ccc(C(F)(F)F)cc2[nH]1)C[C@H]1C[C@@H](n2ccc3c(NC4CC4)ncnc32)[C@H](O)[C@@H]1O [Compound 6, (1R,2S,3R,5R)-3-(4-(cyclopropylamino)-7H-pyrrolo[2,3-d]pyrimidin-7-yl)-5-((isopropyl-(4-(6-(trifluoromethyl)-1H-benzo[d]imidazol-2-yl)butyl)amino)methyl)-cyclopentane-1,2-diol]	< 100 nM
CC(C)N(CCCCc1nc2cc(C(F)(F)F)c(Cl)cc2[nH]1)C[C@H]1C[C@@H](n2ccc3c(NC4CC4)ncnc32)[C@H](O)[C@@H]1O [Compound 4, (1S,2R,3R,5R)-3-(((4-(6-chloro-5-(trifluoromethyl)-1H-benzo[d]imidazol-2-yl)butyl)(isopropyl)amino)methyl)-5-(4-(cyclopropylamino)-7H-pyrrolo[2,3-d]pyrimidin-7-yl)cyclopentane-1,2-diol]	< 100 nM
CC(C)(C)c1ccc2[nH]c(CCCCN(C[C@H]3C[C@@H](n4ccc5c(NC6CC6)ncnc54)[C@H](O)[C@@H]3O)S(C)(=O)=O)nc2c1 [Compound 11, N-(4-(5-(tert-butyl)-1H-benzo[d]imidazol-2-yl)butyl)-N-(((1R,2R,3S,4R)-4-(4-(cyclopropylamino)-7H-pyrrolo[2,3-d]pyrimidin-7-yl)-2,3-dihydroxycyclopentyl)methyl)-methanesulfonamide]	< 1000 nM
CN(CCCNC(=O)Nc1ccc(C(C)(C)C)cc1)C[C@@H]1C[C@@H](n2cnc3c(N)ncnc32)[C@H](O)[C@@H]1O [Compound 3, 1-(3-((((1S,2R,3S,4R)-4-(6-amino-9H-purin-9-yl)-2,3-dihydroxycyclopentyl)methyl)-(methyl)amino)propyl)-3-(4-(tert-butyl)phenyl)urea]	< 1000 nM
CC(C)N(CCCCc1nc2cc(C(C)(C)C)ccc2[nH]1)C[C@H]1C[C@@H](n2ccc3c(N)ncnc32)[C@H](O)[C@@H]1O [Compound 1, (1R,2S,3R,5R)-3-(4-amino-7H-pyrrolo[2,3-d]pyrimidin-7-yl)-5-(((4-(5-tert-butyl-1H-benzo[d]imidazol-2-yl)butyl)(isopropyl)amino)methyl)-cyclopentane-1,2-diol]	< 100 nM
CS(=O)(=O)N(CCCCc1nc2cc(C(F)(F)F)c(Cl)cc2[nH]1)C[C@H]1C[C@@H](n2ccc3c(NC4CC4)ncnc32)[C@H](O)[C@@H]1O [Compound 12, N-(4-(6-chloro-5-(trifluoromethyl)-1H-benzo[d]imidazol-2-yl)butyl)-N-(((1R,2R,3S,4R)-4-(4-(cyclopropylamino)-7H-pyrrolo[2,3-d]pyrimidin-7-yl)-2,3-dihydroxycyclopentyl)methyl)-methanesulfonamide]	< 1000 nM
CN(CCCCc1nc2cc(Cl)c(Cl)cc2[nH]1)C[C@H]1C[C@@H](n2ccc3c(NC4CC4)ncnc32)[C@H](O)[C@@H]1O [Compound 8, (1R,2S,3R,5R)-3-(4-(cyclopropylamino)-7H-pyrrolo[2,3-d]pyrimidin-7-yl)-5-(((4-(5,6-dichloro-1H-benzo[d]imidazol-2-yl)butyl)(methyl)amino)methyl)-cyclopentane-1,2-diol]	< 100 nM
CC(C)N(CCCCc1nc2cc(Cl)c(Cl)cc2[nH]1)C[C@H]1C[C@@H](n2ccc3c(NC4CC4)ncnc32)[C@H](O)[C@@H]1O [Compound 9, (1R,2S,3R,5R)-3-(4-(cyclopropylamino)-7H-pyrrolo[2,3-d]pyrimidin-7-yl)-5-(((4-(5,6-dichloro-1H-benzo[d]imidazol-2-yl)butyl)(isopropyl)amino)methyl)-cyclopentane-1,2-diol trihydrochloride]	< 100 nM
CN(CCCNC(=O)Nc1ccc(C(C)(C)C)cc1)C[C@H]1C[C@@H](n2cnc3c(N)ncnc32)[C@H](O)[C@@H]1O [Compound 10, 1-(3-((((1R,2R,3S,4R)-4-(6-amino-9H-purin-9-yl)-2,3-dihydroxycyclopentyl)methyl)(meth-yl)amino)propyl)-3-(4-(tert-butyl)phenyl)urea]	< 100 nM
